Assay results published in patent US7276519B2, “Thieno[3,2-b]pyridine-6-carbonitriles and thieno[2,3-b]pyridine-5-carbonitriles as protein kinase inhibitors” (Wyeth, priority 2002, dated 2007).
pIC50: −log10 of the molar value. “And” between values parts separate entries of the source, which are not always exact repeats. Equal entries are not always repeated. Where two headings read alike, the source gives them in different places.

What was measured:
[1] = target: T1, Rat2 fibroblasts stably transformed with v-Src/Hu Lck fusion gene (Homo sapiens, UniProt P06239, cells depend on it, form not given); assay: Anchorage independent Lck-transformed fibroblast proliferation assay; type: cell-based, rat; conditions: Table 3; read-out: Lck Cells IC50
T1 construct: Candidates are e.g. Schmidt-Ruppin A (P00524) or Prague C (P00526); The human Lck catalytic domain stands in place of the v-Src catalytic domain
Method: Anchorage Independent Lck-Transformed Fibroblast Proliferation Assay
Rat2 fibroblasts stably transformed with a plasmid containing a CMV promotor controlled v-Src/Hu Lck fusion gene in which the catalytic domain of human Lck was inserted in place of the v-Src catalytic domain in the v-Src gene are used for the measurement of src dependent suspension growth. Ultra-low cluster plates (Costar # 3474) are seeded with 10,000 cells per well on Day 1. Compound is added in serial two-fold dilutions from 10 micromolar to 0.009 micromolar on Day 2 and MTS reagent (Promega) is added on Day 5 (100 microliters of MTS/medium mix+100 microliters of medium already on the cells and the absorbance is measured at 490 nm. The results are analyzed as follows to yield an IC50 for proliferation (micromolar units) as follow: % inhibition=(Abs490 nm sample−blank)/(Abs490 nm no cmpd control−blank)×100%. The results obtained for representative compounds of this invention are listed in Table 2. Multiple entries for a given compound indicate that it was tested multiple times.

[2] = target: T2, Recombinant human Src enzyme (Homo sapiens, UniProt P12931); assay: Src kinase assay (LANCE FRET); type: biochemical; conditions: Table 3; 100 μM ATP, biotinylated Cdk1 peptide substrate
T2 construct: purchased PanVera P3044
Method: Recombinant human Src enzyme was obtained from PanVera (P3044). […] Homogeneous fluorescence resonance energy transfer kinase assays were performed using the europium/APC detection format (LANCE, Perkin Elmer). Src enzyme (10 ng) was mixed with biotinylated peptide (final concentration 2 μM), 50 mM Hepes (pH 7.5), 10 mM MgCl2, 20 μg/ml BSA, 0.001% Brij-35 (sigma), 100 μM ATP, 1% DMSO. The kinase reaction was incubated for 70 min at 37° C. The reaction was stopped with EDTA at a final concentration of 30 mM EDTA/25 mM Hepes (pH 7.5)/10 μg/ml BSA. The mixture was combined with Eu-labeled anti-phosphotyrosine antibody PT66 (Perkin Elmer, AD0068) and Streptavidin Surelight-APC (Perkin Elmer, CR130-100) in 50 mM Hepes (pH 7.5)/20 μg/ml BSA, and incubated for 30 min according to manufacturer's specifications. […] Multiple entries for a given compound indicate that it was tested multiple times.

[3] = test system: Rat2 fibroblasts stably transformed with v-Src/Hu c-Src fusion gene; assay: Anchorage independent Src-transformed fibroblast proliferation assay; type: cell-based, rat
Method: Anchorage Independent Src-Transformed Fibroblast Proliferation Assay Rat2 fibroblasts stably transformed with a plasmid containing a CMV promotor controlled v-Src/Hu c-Src fusion gene in which the catalytic domain of human c-Src was inserted in place of the v-Src catalytic domain in the v-Src gene are used for the measurement of src dependent suspension growth. […] Multiple entries for a given compound indicate that it was tested multiple times.

[4] = Rattus norvegicus, Rat2, Table 3, read-out: Src Cells IC50 μM or % inhib at 10 μM (IC50 values)
[5] = Table 3, read-out: Src Cells IC50 μM or % inhib at 10 μM (IC50 values)
[6] = Rattus norvegicus, Rat2, read-out: Src Cells IC50 μM or % inhib at 10 μM (IC50 values), Table 3
[7] = read-out: Src Cells IC50 μM or % inhib at 10 μM (IC50 values), Table 3

T2 sequence (P12931 whole entry): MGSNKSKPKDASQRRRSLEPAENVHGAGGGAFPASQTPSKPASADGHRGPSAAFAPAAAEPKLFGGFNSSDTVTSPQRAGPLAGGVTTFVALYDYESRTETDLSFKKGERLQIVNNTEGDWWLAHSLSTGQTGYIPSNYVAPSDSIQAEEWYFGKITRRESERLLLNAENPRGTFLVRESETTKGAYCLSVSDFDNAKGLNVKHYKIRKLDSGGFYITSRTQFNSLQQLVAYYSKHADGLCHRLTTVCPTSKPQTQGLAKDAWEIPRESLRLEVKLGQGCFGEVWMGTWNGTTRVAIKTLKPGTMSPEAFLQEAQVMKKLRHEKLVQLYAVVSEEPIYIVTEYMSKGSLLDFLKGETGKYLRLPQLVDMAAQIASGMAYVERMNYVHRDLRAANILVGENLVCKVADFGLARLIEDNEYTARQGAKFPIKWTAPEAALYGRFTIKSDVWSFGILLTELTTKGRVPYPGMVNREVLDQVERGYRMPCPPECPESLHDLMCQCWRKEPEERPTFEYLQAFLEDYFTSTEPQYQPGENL
T1 sequence (P06239 whole entry, change not shown, the tested form may be a part): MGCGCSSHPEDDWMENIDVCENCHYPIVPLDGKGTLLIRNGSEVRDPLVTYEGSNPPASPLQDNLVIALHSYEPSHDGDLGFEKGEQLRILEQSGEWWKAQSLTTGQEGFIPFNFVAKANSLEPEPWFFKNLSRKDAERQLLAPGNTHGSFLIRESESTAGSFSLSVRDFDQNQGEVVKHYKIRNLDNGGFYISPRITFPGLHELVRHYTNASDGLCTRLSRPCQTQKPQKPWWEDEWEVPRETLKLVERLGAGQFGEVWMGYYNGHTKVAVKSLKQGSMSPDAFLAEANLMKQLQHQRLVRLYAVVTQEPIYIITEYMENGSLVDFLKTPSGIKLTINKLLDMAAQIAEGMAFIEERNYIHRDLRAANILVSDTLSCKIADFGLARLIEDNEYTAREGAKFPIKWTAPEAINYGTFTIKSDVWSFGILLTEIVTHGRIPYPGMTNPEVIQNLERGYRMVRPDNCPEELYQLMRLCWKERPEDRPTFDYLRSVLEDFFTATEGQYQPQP

SMILES | GI50 [1] | pIC50 [2] | melting point [°C] | IC50 [3, 4] [µM] | IC50 [3, 5] [µM] | IC50 [3, 6] [µM] | IC50 [3, 7] [µM]
COc1cc(Nc2c(C#N)cnc3cc(-c4ccc(CN(C)CCN(C)C)cc4)sc23)c(Cl)cc1Cl [Example 72, 7-[(2,4-dichloro-5-methoxyphenyl)amino]-2-(4-{[[2-(dimethylamino)ethyl](methyl)amino]methyl}phenyl)thieno[3,2-b]pyridine-6-carbonitrile] | 120 nM and 77 nM | 8.03 and 7.82 | – | 1.3 | 0.7 | – | –
CCOc1cc(Nc2c(C#N)cnc3cc(-c4ccc(CN5CCN(C)CC5)cc4)sc23)c(Cl)cc1Cl [Example 123, 7-[(2,4-dichloro-5-ethoxyphenyl)amino]-2-{4-[(4-methylpiperazin-1-yl)methyl]phenyl}thieno[3,2-b]pyridine-6-carbonitrile] | 3230 nM and 4690 nM | 6.03 and 5.99 | 227 to 229 | – | – | > 10 | –
COc1cc(Nc2c(C#N)cnc3cc(-c4ccc(CCN(C)C)cc4)sc23)c(Cl)cc1Cl [Example 134, 7-[(2,4-dichloro-5-methoxyphenyl)amino]-2-{4-[2-(dimethylamino)ethyl]phenyl}thieno[3,2-b]pyridine-6-carbonitrile] | 130 nM and 170 nM | 8.12 and 8.00 | 196 to 197 | – | – | 0.505 | 0.337
COc1cc(Nc2c(C#N)cnc3cc(-c4ccsc4CN4CCN(C)CC4)sc23)c(Cl)cc1Cl [Example 84, 7-[(2,4-dichloro-5-methoxyphenyl)amino]-2-{2-[(4-methylpiperazin-1-yl)methyl]thien-3-yl}thieno[3,2-b]pyridine-6-carbonitrile] | 3400 nM | 6.49 and 6.24 and 6.46 | 218 to 219 | – | – | 3.3 | –
CCN(CC)Cc1ccc(-c2cc3ncc(C#N)c(Nc4cc(OC)c(Cl)cc4Cl)c3s2)cc1 [Example 106, 7-[(2,4-dichloro-5-methoxyphenyl)amino]-2-{4-[(diethylamino)methyl]phenyl}thieno[3,2-b]pyridine-6-carbonitrile] | 103 nM and 95 nM and 58 nM and 71 nM | 8.00 and 8.18 | 160 to 162 | – | – | – | –
COCCNCc1ccc(-c2cc3ncc(C#N)c(Nc4cc(OC)c(Cl)cc4Cl)c3s2)cc1 [Example 92, 7-[(2,4-dichloro-5-methoxyphenyl)amino]-2-(4-{[(2-methoxyethyl)amino]methyl}phenyl)thieno[3,2-b]pyridine-6-carbonitrile] | 145 nM and 103 nM | 8.06 and 7.96 | 162 to 164 | 0.829 | 0.486 | – | –
COc1cc(Nc2c(C#N)cnc3c(-c4ccc(CN(C)C)cc4)csc23)c(Cl)cc1Cl [Example 141, 7-[(2,4-Dichloro-5-methoxyphenyl)amino]-3-{4-[(dimethylamino)methyl]phenyl}thieno[3,2-b]pyridine-6-carbonitrile] | 3180 nM and 4240 nM | 5.36 and 5.30 | 201 to 202 | 4.52 | 4.11 | – | –
COc1cc(Nc2c(C#N)cnc3cc(-c4ccc(CNCCSC)cc4)sc23)c(Cl)cc1Cl [Example 93, 7-[(2,4-dichloro-5-methoxyphenyl)amino]-2-[4-({[2-(methylthio)ethyl]amino}methyl)phenyl]thieno[3,2-b]pyridine-6-carbonitrile] | 341 nM and 276 nM | 7.82 and 7.80 | 154 to 156 | 1.22 | 0.638 | – | –
CCN1CCN(Cc2ccc(-c3cc4ncc(C#N)c(Nc5cc(OC)c(Cl)cc5Cl)c4s3)cc2)CC1 [Example 70, 7-[(2,4-dichloro-5-methoxyphenyl)amino]-2-{4-[(4-ethylpiperazin-1-yl)methyl]phenyl}thieno[3,2-b]pyridine-6-carbonitrile] | 120 nM and 110 nM | 8.14 and 8.04 | 198 to 200 | – | – | 0.68 | 0.58
COc1cc(Nc2c(C#N)cnc3cc(-c4ccc(CN(C)C)o4)sc23)c(Cl)cc1Cl [Example 76, 7-[(2,4-dichloro-5-methoxyphenyl)amino]-2-{5-[(dimethylamino)methyl]-2-furyl}thieno[3,2-b]pyridine-6-carbonitrile] | 910 nM and 990 nM | – | 200 to 202 | 4.9 | 2.6 | – | –
COc1cc(Nc2c(C#N)cnc3cc(-c4ccc(CN(C)C)s4)sc23)c(Cl)cc1Cl [Example 88, 7-[(2,4-dichloro-5-methoxyphenyl)amino]-2-{5-[(dimethylamino)methyl]thien-2-yl}thieno[3,2-b]pyridine-6-carbonitrile] | 160 nM and 250 nM | – | 210 to 212 | 2.4 | 2.3 | – | –
COc1cc(Nc2c(C#N)cnc3cc(/C=C/c4ccccc4)sc23)c(Cl)cc1Cl [Example 64, 7-[(2,4-Dichloro-5-methoxyphenyl)amino]-2-[(E)-2-phenylvinyl]thieno[3,2-b]pyridine-6-carbonitrile] | 7400 nM and 7900 nM | – | 236 to 238 | 6.4 | 5.6 | – | –

Now from value to molecule, other results behind:

GI50 [1] | pIC50 [2] | melting point [°C] | SMILES | IC50 [3, 4] [µM] | IC50 [3, 5] [µM] | IC50 [3, 6] [µM] | IC50 [3, 7] [µM]
897 nM and 1080 nM and 1560 nM | 7.74 and 7.64 | 211 to 213 | COc1cc(Nc2c(C#N)cnc3cc(-c4ccc(CN5CCN(S(C)(=O)=O)CC5)cc4)sc23)c(Cl)cc1Cl [Example 122, 7-[(2,4-dichloro-5-methoxyphenyl)amino]-2-(4-{[4-(methylsulfonyl)piperazin-1-yl]methyl}phenyl)thieno[3,2-b]pyridine-6-carbonitrile] | – | – | – | –
58 nM and 71 nM | 7.96 and 8.02 | 229 to 232 | COc1cc(Nc2c(C#N)cnc3cc(-c4ccc(CN5CCN(C)CC5)cn4)sc23)c(Cl)cc1Cl [Example 103, 7-[(2,4-dichloro-5-methoxyphenyl)amino]-2-{5-[(4-methylpiperazin-1-yl)methyl]pyridin-2-yl}thieno[3,2-b]pyridine-6-carbonitrile] | 0.401 | 0.445 | – | –
222 nM and 235 nM | 8.07 and 8.15 | 242 to 245 | COc1cc(Nc2c(C#N)cnc3cc(-c4ccc(CN5CC[S+]([O-])CC5)cc4)sc23)c(Cl)cc1Cl [Example 105, 7-[(2,4-dichloro-5-methoxyphenyl)amino]-2-{4-[(1-oxidothiomorpholin-4-yl)methyl]phenyl}thieno[3,2-b]pyridine-6-carbonitrile] | 0.473 | 0.55 | – | –
539 nM and 557 nM | 7.18 and 7.16 | 221 to 223 | COc1cc(Nc2c(C#N)cnc3cc(-c4cccc(CN(C)C)n4)sc23)c(Cl)cc1Cl [Example 128, 7-[(2,4-dichloro-5-methoxyphenyl)amino]-2-{6-[(dimethylamino)methyl]pyridin-2-yl}thieno[3,2-b]pyridine-6-carbonitrile] | – | – | – | –
320 nM and 270 nM | 7.58 and 7.46 | 204 to 206 | COc1cc(Nc2c(C#N)cnc3cc(-c4cccc(CN(C)C)c4)sc23)c(Cl)cc1Cl [Example 75, 7-[(2,4-dichloro-5-methoxyphenyl)amino]-2-{3-[(dimethylamino)methyl]phenyl}thieno[3,2-b]pyridine-6-carbonitrile] | 1.5 | 0.97 | – | –
283 nM and 428 nM | 7.80 | – | COc1cc(Nc2c(C#N)cnc3cc(-c4ccc(CN5CCS(=O)(=O)CC5)cc4)sc23)c(Cl)cc1Cl [Example 111, 7-[(2,4-dichloro-5-methoxyphenyl)amino]-2-{4-[(1,1-dioxidothiomorpholin-4-yl)methyl]phenyl}thieno[3,2-b]pyridine-6-carbonitrile] | 0.572 | 0.411 | – | –
193 nM and 133 nM and 168 nM | 8.08 and 8.16 and 8.28 | 218 to 220 | COc1cc(Nc2c(C#N)cnc3cc(-c4ccc(CN5CCNCC5)cc4)sc23)c(Cl)cc1Cl [Example 95, 7-[(2,4-dichloro-5-methoxyphenyl)amino]-2-[4-(piperazin-1-ylmethyl)phenyl]thieno[3,2-b]pyridine-6-carbonitrile] | – | – | – | –
